According to patent US12409139B2, “Stable parenteral formulations of duloxetine” (LEIUTIS PHARMACEUTICALS LLP, priority 2020, dated 2025):
Read-outs that look alike come from different tables or passages of the source.

What was measured:
[1] = commercial delayed release (enteric coated) capsules, oral; cited from earlier work
[2] = for Assay (%) / Total Impurities / pH: RT-25° C.
Protocol: The solution state stability of duloxetine was studied in various buffers for 24 hours.
The samples were stored for 24 hours and analyzed for pH, assay and total impurities by standard analytical procedures.

[3] = Acetate Buffer (pH-5.5), Initial
[4] = Acetate Buffer (pH-6.4), Initial
[5] = Aspartic acid + Boric Acid Buffer (pH-5.5), 24 h
[6] = Aspartic acid + Boric Acid Buffer (pH-5.5), Initial
[7] = Aspartic acid + Boric Acid Buffer (pH-6.4), 24 h
[8] = Aspartic acid + Boric Acid Buffer (pH-6.4), Initial
[9] = Glycine Buffer (pH-5.5), Initial
[10] = Glycine Buffer (pH-6.4), Initial
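Throughout, for Solubility observation: solubility and solution-stability study of the drug dissolved in assorted buffers across a range of pH values.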

CNCCC(Oc1cccc2ccccc12)c1cccs1 (single isomer, unassigned; (+)) [duloxetine, (+)-N-methyl-3-(1-naphthalenyloxy)-3-(2-thienyl) propan-1-amine]
5.8: pH [2, 6]
97.7%: Assay (%) [2, 10]
6.38: pH [2, 4]
96.6%: Assay (%) ([2]; Glycine Buffer (pH-6.4), 24 h)
6.23: pH [2, 10]
5.59: pH [2, 9]
5.32: pH [2, 3]
0.18: Total Impurities ([2]; Glycine Buffer (pH-6.4), 24 h)
93.9%: Assay (%) [2, 3]
0.2: Total Impurities ([2]; Acetate Buffer (pH-5.5), 24 h) | Total Impurities ([2]; Glycine Buffer (pH-5.5), 24 h)
0.10: Total Impurities [2, 10]
93.0%: Assay (%) [2, 6]
best results: Solution state stability in terms of assay and total impurities (in words) ([2]; acetate buffer at pH-5.5 and pH-6.4 and glycine buffer at pH-5.5 and pH-6.4, 24 hours)
0.5: Total Impurities [2, 5] | Total Impurities [2, 7]
satisfactory stability: Solution state stability (in words) ([2]; all the buffers tested, stored for 24 hours)
Insoluble: Solubility observation (0.1N Sodium hydroxide buffer, pH 4.5, 10 mg/ml) | Solubility observation (0.1N Sodium hydroxide buffer, pH 5.5, 10 mg/ml) | Solubility observation (0.1N Sodium hydroxide buffer, pH 6.4, 10 mg/ml) | Solubility observation (Alanine buffer, pH 6.4, 10 mg/ml) | Solubility observation (Aspartic acid and Boric acid buffer, pH 6.4, 10 mg/ml) | Solubility observation (Citrate buffer, pH 4.5, 10 mg/ml) | Solubility observation (Citrate buffer, pH 5.5, 10 mg/ml) | Solubility observation (Citrate buffer, pH 6.4, 10 mg/ml) | Solubility observation (Histidine buffer, pH 4.5, 10 mg/ml) | Solubility observation (Histidine buffer, pH 5.5, 10 mg/ml) | Solubility observation (Histidine buffer, pH 6.4, 10 mg/ml) | Solubility observation (Lysine buffer, pH 4.5, 10 mg/ml) | Solubility observation (Lysine buffer, pH 5.5, 10 mg/ml) | Solubility observation (Lysine buffer, pH 6.4, 10 mg/ml) | Solubility observation (Meglumine buffer, pH 4.5, 10 mg/ml) | Solubility observation (Meglumine buffer, pH 5.5, 10 mg/ml) | Solubility observation (Meglumine buffer, pH 6.4, 10 mg/ml) | Solubility observation (Phenyl alanine buffer, pH 6.4, 10 mg/ml) | Solubility observation (Phosphate buffer, pH 5.5, 10 mg/ml) | Solubility observation (Phosphate buffer, pH 6.4, 10 mg/ml) | Solubility observation (Serine buffer, pH 7.5, 10 mg/ml) | Solubility observation (Sodium phosphate buffer, pH 5.5, 10 mg/ml) | Solubility observation (Sodium phosphate buffer, pH 6.4, 10 mg/ml) | Solubility observation (Succinate buffer, pH 5.5, 10 mg/ml) | Solubility observation (Succinate buffer, pH 6.4, 10 mg/ml) | Solubility observation (Tartaric acid buffer, pH 4.5, 10 mg/ml) | Solubility observation (Tartaric acid buffer, pH 5.5, 10 mg/ml) | Solubility observation (Tartaric acid buffer, pH 6.4, 10 mg/ml) | Solubility observation (Tris buffer, pH 4.5, 10 mg/ml) | Solubility observation (Tris buffer, pH 5.5, 10 mg/ml) | Solubility observation (Tris buffer, pH 6.4, 10 mg/ml)
6.35: pH ([2]; Glycine Buffer (pH-6.4), 24 h)
93.3%: Assay (%) [2, 5]
6.1: pH ([2]; Acetate Buffer (pH-6.4), 24 h)
5.4: pH ([2]; Acetate Buffer (pH-5.5), 24 h)
0.1: Total Impurities ([2]; Acetate Buffer (pH-6.4), 24 h) | Total Impurities [2, 4]
104.8%: Assay (%) ([2]; Glycine Buffer (pH-5.5), 24 h)
94.3%: Assay (%) [2, 4]
5.5: pH ([2]; Glycine Buffer (pH-5.5), 24 h)
0.14: Total Impurities [2, 3]
6.6: pH [2, 8]
92.4%: Assay (%) ([2]; Acetate Buffer (pH-5.5), 24 h)
Clear solution: Solubility observation (Acetate buffer, pH 4.5, 10 mg/ml) | Solubility observation (Acetate buffer, pH 5.5, 10 mg/ml) | Solubility observation (Acetate buffer, pH 6.4, 10 mg/ml) | Solubility observation (Acetate buffer, pH 7.5, 10 mg/ml) | Solubility observation (Alanine buffer, pH 4.5, 10 mg/ml) | Solubility observation (Alanine buffer, pH 5.5, 10 mg/ml) | Solubility observation (Aspartic acid and Boric acid buffer, pH 4.5, 10 mg/ml) | Solubility observation (Aspartic acid and Boric acid buffer, pH 5.5, 10 mg/ml) | Solubility observation (Glycine buffer, pH 4.5, 10 mg/ml) | Solubility observation (Glycine buffer, pH 5.5, 10 mg/ml) | Solubility observation (Glycine buffer, pH 6.4, 10 mg/ml) | Solubility observation (Glycine buffer, pH 7.5, 10 mg/ml) | Solubility observation (Isoleucine buffer, pH 4.5, 10 mg/ml) | Solubility observation (Isoleucine buffer, pH 5.5, 10 mg/ml) | Solubility observation (Isoleucine buffer, pH 6.4, 10 mg/ml) | Solubility observation (Isoleucine buffer, pH 7.5, 10 mg/ml) | Solubility observation (Lactic acid buffer, pH 4.5, 10 mg/ml) | Solubility observation (Lactic acid buffer, pH 5.5, 10 mg/ml) | Solubility observation (Lactic acid buffer, pH 6.4, 10 mg/ml) | Solubility observation (Lactic acid buffer, pH 7.5, 10 mg/ml) | Solubility observation (Leucine buffer, pH 4.5, 10 mg/ml) | Solubility observation (Leucine buffer, pH 5.5, 10 mg/ml) | Solubility observation (Leucine buffer, pH 6.4, 10 mg/ml) | Solubility observation (Leucine buffer, pH 7.5, 10 mg/ml) | Solubility observation (Methionine buffer, pH 4.5, 10 mg/ml) | Solubility observation (Methionine buffer, pH 5.5, 10 mg/ml) | Solubility observation (Methionine buffer, pH 6.4, 10 mg/ml) | Solubility observation (Methionine buffer, pH 7.5, 10 mg/ml) | Solubility observation (Phenyl alanine buffer, pH 4.5, 10 mg/ml) | Solubility observation (Phenyl alanine buffer, pH 5.5, 10 mg/ml) | Solubility observation (Phosphate buffer, pH 4.5, 10 mg/ml) | Solubility observation (Proline buffer, pH 4.5, 10 mg/ml) | Solubility observation (Proline buffer, pH 5.5, 10 mg/ml) | Solubility observation (Proline buffer, pH 6.4, 10 mg/ml) | Solubility observation (Proline buffer, pH 7.5, 10 mg/ml) | Solubility observation (Serine buffer, pH 4.5, 10 mg/ml) | Solubility observation (Serine buffer, pH 5.5, 10 mg/ml) | Solubility observation (Serine buffer, pH 6.4, 10 mg/ml) | Solubility observation (Sodium phosphate buffer, pH 4.5, 10 mg/ml) | Solubility observation (Succinate buffer, pH 4.5, 10 mg/ml) | Solubility observation (Tryptophan buffer, pH 4.5, 10 mg/ml) | Solubility observation (Tryptophan buffer, pH 5.5, 10 mg/ml) | Solubility observation (Tryptophan buffer, pH 6.4, 10 mg/ml) | Solubility observation (Tryptophan buffer, pH 7.5, 10 mg/ml) | Solubility observation (Valine buffer, pH 4.5, 10 mg/ml) | Solubility observation (Valine buffer, pH 5.5, 10 mg/ml) | Solubility observation (Valine buffer, pH 6.4, 10 mg/ml) | Solubility observation (Valine buffer, pH 7.5, 10 mg/ml)
97.8%: Assay (%) [2, 7]
0.3: Total Impurities [2, 6] | Total Impurities [2, 8]
6.5: pH [2, 7]
2 h: time for the absorption to begin [1]
0.12: Total Impurities [2, 9]
90.3%: Assay (%) ([2]; Acetate Buffer (pH-6.4), 24 h)
97.9%: Assay (%) [2, 8]
105%: Assay (%) [2, 9]
5.7: pH [2, 5]
